This is an account of results in ChEMBL document CHEMBL1201862, “PubChem BioAssay data set” (2004).

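Growth conditions: 96-well plates. Treatment: test compound, 48 hours, 5 concentrations. Analysis: linear interpolation between bracketing concentrations; unreached endpoints set to highest concentration. GI50 is the concentration that inhibits growth by half.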 Active and inactive are the calls of the source. Cut-off read from the data, not from the text of the source: active = GI50 up to about 1.1 µM and inactive = higher. Bounds are passed on as bounds.

Common to all, as to test: growth of human tumour cells (NCI), 48 h
Assay [1] deals with DLD-1.
For assay [2], the system named is HCT-15.
In assay [3] the test system is Malme-3M.
Assay [4] has as its system OVCAR-5.
Assay [5] has as its system RXF 393.
Assay [6] has as its system SF-295.
Assay [7] deals with SK-OV-3.
The subject of assay [8] is SNB-19.
Assay [9] concerns SR.
Assay [10] has as its system SW-620.
For assay [11], the system named is TK-10.
In assay [12] the test system is UACC-257.
Assay [13] deals with SNB-75.
Assay [14] relates to 786-0.
Assay [15] relates to OVCAR-4.

In the case of `Cc1c(N(Cc2ccccc2)Cc2ccccc2)nc(S(C)(=O)=O)nc1S(C)(=O)=O`, the GI50 in [1] is 1.87 µM (inactive); in assay [2], 2.56 µM; in assay [3], 5.36 µM (inactive); in assay [4], 7.4 µM (inactive); in assay [5], 1.57 µM (inactive); in assay [6], 17.7 µM (inactive). Besides, the GI50 is 14.4 µM (inactive) in [7]; 13.4 µM (inactive) in assay [8]; 1.58 µM (inactive) in assay [9]; 1.93 µM (inactive) in assay [10]; 4.2 µM (inactive) in assay [11]; 2.09 µM (inactive) in assay [12].
Regarding `CC(C)(Br)C1(O)CCCN1C(=O)c1ccccc1` (centres undefined), the GI50 in [1] was > 100 µM (inactive); in [2], greater than 100 µM; in [3], > 100 µM (inactive); in assay [4], > 100 µM (inactive); in assay [5] it was > 100 µM (inactive); in assay [6], 25.1 µM (inactive). In addition, the GI50 is > 100 µM (inactive) in assay [7]; > 100 µM (inactive) in [8]; 97.5 µM (inactive) in assay [13]; > 100 µM (inactive) in [9]; > 100 µM (inactive) in [10]; > 100 µM (inactive) in assay [11]. Also, the GI50 in [12] is > 100 µM (inactive).
Take `COc1ccc([Se][Se]c2ccc(OC)cc2OC)c(OC)c1`: the GI50 in assay [14] was 2.81 µM (inactive); in assay [1], 3.3 µM (inactive); in assay [2], 1.84 µM; in [3], 4.54 µM (inactive); in assay [15], 2.1 µM (inactive); in assay [5], 2.13 µM (inactive). Also, the GI50 in assay [6] is 2.1 µM (inactive); in [7], 32.4 µM (inactive); in assay [8], 3.64 µM (inactive); in assay [13] it was 1.59 µM (inactive); in assay [10] it was 2.59 µM (inactive); in assay [11], 4.06 µM (inactive). Also, the GI50 in assay [12] was 2.45 µM (inactive).
On to `COC(=O)/C([Se]c1c(C)cc(C)cc1C)=C(\[Se]c1c(C)cc(C)cc1C)C(=O)OC`, for which the GI50 was > 100 µM (inactive) in [14]; > 100 µM (inactive) in assay [1]; greater than 100 µM in assay [2]; > 100 µM (inactive) in [3]; > 100 µM (inactive) in assay [15]; > 100 µM (inactive) in [4]. The GI50 in [5], in assay [6], in assay [7], in assay [8], in [13] and in assay [9] was > 100 µM (inactive) each time. In addition, the GI50 in assay [10], in [11] and in assay [12] was > 100 µM (inactive) in each case.
As to `C=COCCCOc1ccccc1`, the GI50 in assay [1] is > 100 µM (inactive); in assay [2], greater than 100 µM; in [3], > 100 µM (inactive); in assay [15], > 100 µM (inactive); in assay [4], > 100 µM (inactive); in assay [5], > 100 µM (inactive). The GI50 in assay [8], in assay [9], in assay [10] and in assay [11] was > 100 µM (inactive) in each case.
Take `CCCn1cc2c3c(cccc31)C1C=C(C)CN(C)C1C2` (centres undefined): the GI50 was 20.7 µM (inactive) in assay [1]; 17.4 µM in assay [2]; 18.7 µM (inactive) in assay [3]; 10.1 µM (inactive) in assay [15]; 25.2 µM (inactive) in assay [4]; 18.5 µM (inactive) in assay [5]. Further, the GI50 in assay [6] was 23.8 µM (inactive); in assay [7] it was 37.3 µM (inactive); in assay [8] it was 27 µM (inactive); in assay [13] it was 12 µM (inactive); in assay [10] it was 23.4 µM (inactive); in assay [12] it was 7.69 µM (inactive).
In the case of `COC[C@@H](Cc1ccc(OC)c(OC)c1)[C@@H](COC)Cc1ccc(OC)c(OC)c1`, the GI50 in [1] was > 100 µM (inactive); in [2], greater than 100 µM; in assay [3], > 100 µM (inactive); in [4], > 100 µM (inactive); in assay [5] it was > 100 µM (inactive); in assay [6] it was > 100 µM (inactive). Further, the GI50 was > 100 µM (inactive) in assay [7]; > 100 µM (inactive) in assay [8]; > 100 µM (inactive) in assay [13]; 95.3 µM (inactive) in assay [9]; > 100 µM (inactive) in assay [10]; > 100 µM (inactive) in assay [11]. The GI50 in assay [12] was > 100 µM (inactive).
Regarding `CC(C)(C)OC(=O)NC1CCCC1=O` (centres undefined), the GI50 in assay [14], in assay [1], in assay [3], in [15], in assay [4] and in [5] was > 100 µM (inactive) throughout. For the same compound, the GI50 in [6] was > 100 µM (inactive); in assay [7] it was > 100 µM (inactive); in assay [8] it was > 100 µM (inactive); in assay [13], 40.9 µM (inactive); in assay [9], > 100 µM (inactive); in assay [10], > 100 µM (inactive). Besides, the GI50 in assay [11] and in assay [12] was > 100 µM (inactive) each time.
For the compound `C/C(=N/NS(=O)(=O)c1ccc([N+](=O)[O-])cc1)c1cccc[n+]1[O-]`, the GI50 in [14] was > 100 µM (inactive); in assay [1], > 100 µM (inactive); in [2], greater than 100 µM; in assay [15] it was > 100 µM (inactive); in assay [4], > 100 µM (inactive); in assay [6], > 100 µM (inactive). The GI50 in assay [7], in [8], in assay [13], in [9], in assay [10] and in assay [11] was > 100 µM (inactive) in each case. The GI50 in [12] is > 100 µM (inactive).
Take `C=C1C(=O)O[C@@H]2[C@H]3O[C@]3(C)CCC=C(C)CC[C@@H]12`: the GI50 is 12.5 µM (inactive) in assay [1]; 14.7 µM in [2]; 13.4 µM (inactive) in [3]; 21.6 µM (inactive) in assay [15]; 34.2 µM (inactive) in [4]; 12.2 µM (inactive) in assay [5]. For the same compound, the GI50 in [6] was 24.8 µM (inactive); in assay [7], 54.7 µM (inactive); in assay [8] it was 63.7 µM (inactive); in [13], 48.4 µM (inactive); in assay [10] it was 14.8 µM (inactive); in [12] it was 14.9 µM (inactive).
Regarding `CN(C)/N=N/c1ccc([N+](=O)[O-])cc1C(N)=O`, the GI50 in [1] was > 100 µM (inactive); in [2] it was greater than 100 µM; in assay [3], > 100 µM (inactive); in assay [15], > 100 µM (inactive); in assay [4], > 100 µM (inactive); in assay [5], > 100 µM (inactive). Further, the GI50 is > 100 µM (inactive) in [6]; > 100 µM (inactive) in assay [7]; > 66.5 µM (inactive) in [8]; > 100 µM (inactive) in assay [13]; > 100 µM (inactive) in assay [10]; > 100 µM (inactive) in assay [12].
